Measured values: ChEMBL document CHEMBL1201862, “PubChem BioAssay data set” (2004)
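How tested: cells in 96-well plates exposed to compound for 48 hours at five concentrations. GI50 = concentration required for 50% inhibition of growth.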 Activity calls are given as the source filed them. Cut-off read from the data, not from the text of the source: active = GI50 up to about 1.1 µM and inactive = higher.

How the values were obtained:
Assay in all cases: inhibition of tumour cell growth, NCI panel, 48 h
DU-145 = tested on: DU-145
PC-3 = tested on: PC-3
T47D = tested on: T47D
COLO 205 = tested on: COLO 205
M14 = tested on: M14
MCF7 = tested on: MCF7
NCI-H522 = tested on: NCI-H522
MDA-MB-435 = tested on: MDA-MB-435
SF-295 = tested on: SF-295
SK-MEL-5 = tested on: SK-MEL-5
HL-60 = tested on: HL-60
Hs-578T = tested on: Hs-578T
SNB-19 = tested on: SNB-19
SNB-75 = tested on: SNB-75
CAKI-1 = tested on: CAKI-1
EKVX = tested on: EKVX
SF-268 = tested on: SF-268
IGROV-1 = tested on: IGROV-1
UACC-62 = tested on: UACC-62
ACHN = tested on: ACHN

Measured: GI50

NS(=O)(=O)c1cc(Cl)c(NC(=S)NC(=O)Nc2ccc(Cl)c(Cl)c2)c(Cl)c1
inactive: DU-145 67 µM | PC-3 33.9 µM | T47D 23.8 µM | COLO 205 18 µM | M14 27.5 µM | MCF7 20.4 µM | NCI-H522 26.1 µM | MDA-MB-435 32.7 µM | SF-295 37.8 µM | SK-MEL-5 18.3 µM | HL-60 21.8 µM | Hs-578T > 100 µM | SNB-19 42.9 µM | SNB-75 59.8 µM | CAKI-1 76.4 µM | EKVX 28.4 µM | SF-268 56.8 µM | IGROV-1 81.1 µM | UACC-62 23.1 µM | ACHN 34.1 µM

O=C1c2ccccc2C(=O)N1CCCC(=O)n1cc(F)c(=O)[nH]c1=O
inactive: DU-145 10.1 µM | PC-3 30.1 µM | T47D > 33.7 µM | COLO 205 6.62 µM | M14 14.5 µM | MCF7 6.21 µM | NCI-H522 37.4 µM | MDA-MB-435 > 37.1 µM | SF-295 49.1 µM | SK-MEL-5 12.3 µM | HL-60 7.78 µM | Hs-578T > 100 µM | SNB-19 49.1 µM | SNB-75 37 µM | CAKI-1 6.05 µM | EKVX > 58.3 µM | SF-268 69.2 µM | IGROV-1 3.4 µM | UACC-62 23.6 µM | ACHN 15.8 µM

CC1=CC(=O)[C@@H](O)[C@]2(C)[C@H]3[C@@]4(O)OC[C@]35[C@H]([C@@H](C)[C@H]4O)[C@@H](OC(=O)C(C)(C)CO)C(=O)O[C@@H]5C[C@@H]12
inactive: COLO 205 1.73 µM
active: DU-145 0.305 µM | PC-3 0.0698 µM | T47D 0.0209 µM | M14 < 0.0431 µM | MCF7 < 0.0189 µM | NCI-H522 < 0.0151 µM | MDA-MB-435 0.12 µM | SF-295 0.229 µM | SK-MEL-5 < 0.0204 µM | HL-60 0.0243 µM | Hs-578T 0.046 µM | SNB-19 0.05 µM | SNB-75 0.045 µM | CAKI-1 1.08 µM | EKVX 0.741 µM | SF-268 < 0.0379 µM | IGROV-1 < 0.0165 µM | UACC-62 0.0838 µM | ACHN 0.208 µM

CN(Cc1cnc2nc(N)nc(N)c2n1)c1ccc(C(=O)N[C@@H](CCC(=O)O)C(=O)O)cc1 [METHOTREXATE]
inactive: T47D 28 µM | COLO 205 1.19 µM | Hs-578T 192 µM | SNB-75 21.7 µM | EKVX 18.4 µM
active: DU-145 0.0476 µM | PC-3 0.0865 µM | M14 0.0334 µM | MCF7 0.0486 µM | NCI-H522 0.25 µM | MDA-MB-435 0.0341 µM | SF-295 0.0383 µM | SK-MEL-5 0.09 µM | HL-60 0.043 µM | SNB-19 0.59 µM | CAKI-1 0.0614 µM | SF-268 0.0409 µM | IGROV-1 0.0908 µM | UACC-62 0.0286 µM | ACHN 0.0385 µM

CC(=O)C1=C(C)N(c2ccc(C)cc2)C2(O)C=CC(=O)C3C(=O)N(c4ccccc4)C(=O)C132 (stereo not given)
inactive: DU-145 23.4 µM | PC-3 22.1 µM | T47D 14.1 µM | COLO 205 23.3 µM | M14 24.4 µM | MCF7 8.3 µM | NCI-H522 7.89 µM | MDA-MB-435 36.3 µM | SF-295 14.4 µM | SK-MEL-5 15.4 µM | HL-60 2.47 µM | Hs-578T 29.7 µM | SNB-19 25.2 µM | SNB-75 24.4 µM | CAKI-1 18.6 µM | EKVX 32.6 µM | SF-268 31 µM | IGROV-1 8.43 µM | UACC-62 16.7 µM | ACHN 15.9 µM

CS(=O)(=O)OCCN(CCOS(C)(=O)=O)c1ccc(/C=N/c2ccc(-c3csc(Cc4ccccc4)n3)cc2)c(Cl)c1
inactive: DU-145 30.4 µM | PC-3 22.5 µM | T47D 30.8 µM | COLO 205 15.1 µM | M14 25.3 µM | MCF7 2.65 µM | NCI-H522 > 43.4 µM | MDA-MB-435 21 µM | SF-295 30.2 µM | SK-MEL-5 16.4 µM | HL-60 11.1 µM | Hs-578T 28.4 µM | SNB-19 > 45.3 µM | SNB-75 15.5 µM | CAKI-1 1.23 µM | EKVX 36.5 µM | SF-268 27.4 µM | IGROV-1 18.2 µM | UACC-62 6.5 µM | ACHN 30.7 µM

Cc1cc(S(=O)(=O)Nc2nc(Nc3ccccc3)n[nH]2)c(SCC(=O)O)cc1Cl
inactive: DU-145 > 100 µM | PC-3 > 100 µM | T47D > 100 µM | COLO 205 > 100 µM | M14 > 100 µM | MCF7 > 100 µM | NCI-H522 > 100 µM | MDA-MB-435 > 100 µM | SF-295 > 100 µM | SK-MEL-5 > 100 µM | HL-60 > 100 µM | Hs-578T > 100 µM | SNB-19 > 100 µM | SNB-75 > 100 µM | CAKI-1 > 100 µM | EKVX > 100 µM | SF-268 > 100 µM | IGROV-1 > 100 µM | UACC-62 > 100 µM | ACHN > 100 µM

COC(=O)c1cc(C(=CCC[C@H]2CC[C@@]3(C)C(CCC4C3CC[C@@]3(C)C4CC[C@@H]3C(C)CCCC(C)C)C2)c2cc(Cl)c(OC(=O)c3ccccc3)c(C(=O)OC)c2)cc(Cl)c1OC(=O)c1ccccc1 (stereo not given in full)
inactive: DU-145 > 10 µM | PC-3 > 10 µM | T47D > 10 µM | COLO 205 > 10 µM | M14 > 10 µM | MCF7 > 10 µM | NCI-H522 > 10 µM | MDA-MB-435 > 10 µM | SF-295 > 10 µM | SK-MEL-5 > 10 µM | HL-60 > 10 µM | Hs-578T > 10 µM | SNB-19 > 10 µM | SNB-75 > 10 µM | CAKI-1 > 10 µM | EKVX > 10 µM | SF-268 > 10 µM | IGROV-1 > 10 µM | UACC-62 > 10 µM | ACHN > 10 µM

O=C(/C=C/c1ccc(Cl)cc1)Oc1ccc(/C=C2\CCCCC2=O)cc1
inactive: DU-145 > 100 µM | PC-3 > 100 µM | T47D > 100 µM | COLO 205 > 100 µM | M14 > 100 µM | MCF7 > 100 µM | NCI-H522 50.8 µM | MDA-MB-435 > 100 µM | SF-295 > 100 µM | SK-MEL-5 > 100 µM | HL-60 50.7 µM | Hs-578T > 100 µM | SNB-19 > 10 µM | SNB-75 > 100 µM | CAKI-1 > 100 µM | EKVX > 100 µM | SF-268 69.7 µM | IGROV-1 > 100 µM | UACC-62 > 100 µM | ACHN > 100 µM

O=C1CCC[C@@H]2NC[C@@H](c3ccc4c(c3)OCO4)[C@H]12
inactive: DU-145 > 25 µM | PC-3 > 25 µM | T47D > 25 µM | COLO 205 > 25 µM | M14 > 25 µM | MCF7 > 25 µM | NCI-H522 > 25 µM | MDA-MB-435 > 25 µM | SF-295 > 25 µM | SK-MEL-5 > 25 µM | HL-60 > 25 µM | Hs-578T > 25 µM | SNB-19 > 25 µM | SNB-75 > 25 µM | CAKI-1 > 25 µM | EKVX > 25 µM | SF-268 > 25 µM | IGROV-1 > 25 µM | UACC-62 > 25 µM | ACHN > 25 µM

Cc1cccc(C(C)(C)C)c1NC(=O)/C(Cc1nc2ccc([N+](=O)[O-])cc2nc1O)=N\NC(=O)C[N+](C)(C)C
inactive: DU-145 > 100 µM | PC-3 62.5 µM | T47D 53.5 µM | COLO 205 71.8 µM | M14 > 100 µM | MCF7 74.6 µM | NCI-H522 17.4 µM | MDA-MB-435 > 100 µM | SF-295 > 100 µM | SK-MEL-5 > 100 µM | HL-60 > 100 µM | Hs-578T > 100 µM | SNB-19 > 100 µM | SNB-75 > 100 µM | CAKI-1 > 100 µM | EKVX > 100 µM | SF-268 > 100 µM | IGROV-1 > 100 µM | UACC-62 > 100 µM | ACHN > 100 µM

COC(=O)/C=C1/OC(c2ccc(Br)cc2)=C(Br)C1=O
inactive: DU-145 12.7 µM | PC-3 6.93 µM | T47D 5.55 µM | COLO 205 1.89 µM | M14 4.93 µM | MCF7 10.5 µM | NCI-H522 3.94 µM | MDA-MB-435 7.67 µM | SF-295 14.1 µM | SK-MEL-5 7.48 µM | HL-60 2.06 µM | Hs-578T 8.38 µM | SNB-19 10.4 µM | SNB-75 7.43 µM | CAKI-1 2.33 µM | EKVX 13.2 µM | SF-268 6.93 µM | IGROV-1 6.34 µM | UACC-62 7.05 µM | ACHN 7.23 µM

O=C1OC(c2ccc(Cl)cc2)=N/C1=C\c1ccccc1
inactive: DU-145 > 100 µM | PC-3 > 100 µM | T47D > 100 µM | COLO 205 > 100 µM | M14 > 100 µM | MCF7 > 100 µM | NCI-H522 49.2 µM | MDA-MB-435 > 100 µM | SF-295 > 100 µM | SK-MEL-5 > 100 µM | HL-60 62.7 µM | Hs-578T > 100 µM | SNB-19 > 100 µM | SNB-75 > 100 µM | CAKI-1 > 100 µM | EKVX > 100 µM | SF-268 > 100 µM | IGROV-1 > 100 µM | UACC-62 > 100 µM | ACHN > 100 µM
